ChEMBL document CHEMBL1201862, “PubChem BioAssay data set” (2004)
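Test compounds were applied to cells in 96-well plates for 48 hours at 5 doses. GI50 = concentration required for 50% inhibition of growth.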 The source made the active and inactive calls. No stated cut-off is given here; in the data, active = GI50 up to about 1.1 µM and inactive = higher.

Key:
Test in all cases: NCI tumour cell line growth inhibition, 48 h
SR = test system: SR
DU-145 = test system: DU-145
COLO 205 = test system: COLO 205
KM12 = test system: KM12
RXF 393 = test system: RXF 393
SK-OV-3 = test system: SK-OV-3
786-0 = test system: 786-0
PC-3 = test system: PC-3
OVCAR-4 = test system: OVCAR-4
CAKI-1 = test system: CAKI-1
SNB-75 = test system: SNB-75
A498 = test system: A498
SN12C = test system: SN12C
OVCAR-8 = test system: OVCAR-8
NCI-H522 = test system: NCI-H522
TK-10 = test system: TK-10
LOX IMVI = test system: LOX IMVI
NCI/ADR-RES = test system: NCI/ADR-RES
BT-549 = test system: BT-549

SMILES	GI50 (SR)	GI50 (DU-145)	GI50 (COLO 205)	GI50 (KM12)	GI50 (RXF 393)	GI50 (SK-OV-3)	GI50 (786-0)	GI50 (PC-3)	GI50 (OVCAR-4)	GI50 (CAKI-1)	GI50 (SNB-75)	GI50 (A498)	GI50 (SN12C)	GI50 (OVCAR-8)	GI50 (NCI-H522)	GI50 (TK-10)	GI50 (LOX IMVI)	GI50 (NCI/ADR-RES)	GI50 (BT-549)
O=[N+]([O-])C(=C1Nc2ccccc2N1)C(Cl)=C(Cl)Cl	51.3 µM (inactive)	> 100 µM (inactive)	> 100 µM (inactive)	> 100 µM (inactive)	99.1 µM (inactive)	> 100 µM (inactive)	63.4 µM (inactive)	> 100 µM (inactive)	27 µM (inactive)	> 100 µM (inactive)	< 0.01 µM (active)	> 100 µM (inactive)	> 100 µM (inactive)	74.5 µM (inactive)	> 100 µM (inactive)	> 100 µM (inactive)	> 100 µM (inactive)	–	–
CCSc1nc(=S)n(-c2ccccc2)c(C)c1C(C)=O	> 100 µM (inactive)	> 100 µM (inactive)	> 100 µM (inactive)	> 100 µM (inactive)	> 100 µM (inactive)	> 100 µM (inactive)	> 100 µM (inactive)	> 100 µM (inactive)	> 100 µM (inactive)	> 100 µM (inactive)	> 100 µM (inactive)	> 100 µM (inactive)	> 100 µM (inactive)	> 100 µM (inactive)	> 100 µM (inactive)	> 100 µM (inactive)	> 100 µM (inactive)	> 100 µM (inactive)	–
CCOC(=O)c1c(NCc2ccccc2)n(-c2ccccc2)c(=S)n(-c2ccccc2)c1=O	33.7 µM (inactive)	> 100 µM (inactive)	76.2 µM (inactive)	> 100 µM (inactive)	> 100 µM (inactive)	–	> 100 µM (inactive)	–	98.6 µM (inactive)	–	33.7 µM (inactive)	–	> 100 µM (inactive)	> 100 µM (inactive)	57.8 µM (inactive)	> 100 µM (inactive)	> 100 µM (inactive)	–	36.9 µM (inactive)
COC(=O)[C@H](Cc1ccccc1)NP(=O)(O)OCC1OC(n2cc(C)c(=O)[nH]c2=O)CC1N=[N+]=[N-] (some centres undefined)	> 100 µM (inactive)	> 100 µM (inactive)	> 100 µM (inactive)	> 100 µM (inactive)	> 100 µM (inactive)	> 100 µM (inactive)	> 100 µM (inactive)	> 100 µM (inactive)	> 100 µM (inactive)	> 100 µM (inactive)	> 100 µM (inactive)	> 100 µM (inactive)	> 100 µM (inactive)	> 100 µM (inactive)	> 100 µM (inactive)	> 100 µM (inactive)	> 100 µM (inactive)	> 100 µM (inactive)	–
CCn1c(O)c(C(=O)NC(C)c2ccc([N+](=O)[O-])cc2)c(=O)n(CC)c1=S (centres undefined)	–	2.54 µM (inactive)	1.81 µM (inactive)	2.01 µM (inactive)	3.11 µM (inactive)	3.09 µM (inactive)	3.27 µM (inactive)	0.773 µM (active)	1.48 µM (inactive)	2.55 µM (inactive)	2.16 µM (inactive)	–	3.52 µM (inactive)	–	–	4.06 µM (inactive)	2.31 µM (inactive)	–	2.21 µM (inactive)
COC(=O)CCn1cnc2c(SC)ncnc21	> 100 µM (inactive)	> 100 µM (inactive)	> 100 µM (inactive)	> 100 µM (inactive)	> 100 µM (inactive)	> 100 µM (inactive)	> 100 µM (inactive)	> 100 µM (inactive)	> 100 µM (inactive)	> 100 µM (inactive)	> 100 µM (inactive)	> 100 µM (inactive)	> 100 µM (inactive)	> 100 µM (inactive)	> 100 µM (inactive)	> 100 µM (inactive)	> 100 µM (inactive)	> 100 µM (inactive)	–
O=C1CSc2ccnc(=O)n21	> 100 µM (inactive)	> 100 µM (inactive)	> 100 µM (inactive)	–	> 100 µM (inactive)	> 100 µM (inactive)	> 100 µM (inactive)	> 100 µM (inactive)	> 100 µM (inactive)	> 100 µM (inactive)	93.5 µM (inactive)	> 100 µM (inactive)	> 100 µM (inactive)	> 100 µM (inactive)	> 100 µM (inactive)	> 100 µM (inactive)	–	–	> 100 µM (inactive)
CCC(=O)C(C)C1=Nc2nnc(CCCCCCCc3nnc4n3C(=O)C(C(C)C(=O)CC)=N4)n2C1=O (centres undefined)	21.6 µM (inactive)	–	> 100 µM (inactive)	> 100 µM (inactive)	> 100 µM (inactive)	> 100 µM (inactive)	> 100 µM (inactive)	–	–	> 100 µM (inactive)	> 100 µM (inactive)	> 100 µM (inactive)	> 100 µM (inactive)	> 100 µM (inactive)	> 100 µM (inactive)	> 100 µM (inactive)	> 100 µM (inactive)	–	–
COC(=O)N[C@@H]1C[C@H]2CC[C@]1(O[Si](C(C)C)(C(C)C)C(C)C)C(=O)C2	6.93 µM (inactive)	> 100 µM (inactive)	34.6 µM (inactive)	18.2 µM (inactive)	–	21.3 µM (inactive)	17.9 µM (inactive)	12.9 µM (inactive)	14.5 µM (inactive)	23.9 µM (inactive)	20 µM (inactive)	21.4 µM (inactive)	33.5 µM (inactive)	23.1 µM (inactive)	8.59 µM (inactive)	14.7 µM (inactive)	–	14.8 µM (inactive)	–
N#Cc1nc(C(O)c2ccccc2)oc1N (centres undefined)	–	> 100 µM (inactive)	> 100 µM (inactive)	> 100 µM (inactive)	17.9 µM (inactive)	> 100 µM (inactive)	> 100 µM (inactive)	> 100 µM (inactive)	–	> 100 µM (inactive)	> 100 µM (inactive)	> 100 µM (inactive)	> 100 µM (inactive)	> 100 µM (inactive)	76.6 µM (inactive)	> 100 µM (inactive)	> 100 µM (inactive)	> 100 µM (inactive)	–
O=C(C(=C(I)I)c1ccccc1)c1ccccc1	14.2 µM (inactive)	–	27.5 µM (inactive)	–	–	59.6 µM (inactive)	> 10 µM (inactive)	28.4 µM (inactive)	39.9 µM (inactive)	38.4 µM (inactive)	–	13.1 µM (inactive)	24 µM (inactive)	37.2 µM (inactive)	–	28.4 µM (inactive)	–	28.6 µM (inactive)	55.7 µM (inactive)
O=C(O)CCCc1ccc2c(c1)CC1(C2)Cc2ccc(CCCC(=O)O)cc2C1	> 100 µM (inactive)	–	> 100 µM (inactive)	> 100 µM (inactive)	> 100 µM (inactive)	> 100 µM (inactive)	> 100 µM (inactive)	> 100 µM (inactive)	> 100 µM (inactive)	–	–	> 100 µM (inactive)	> 100 µM (inactive)	> 100 µM (inactive)	> 100 µM (inactive)	> 100 µM (inactive)	> 100 µM (inactive)	> 100 µM (inactive)	–
S=C(NN=C1NCCCN1)Nc1ccccc1	63.1 µM (inactive)	–	> 100 µM (inactive)	> 100 µM (inactive)	> 100 µM (inactive)	> 100 µM (inactive)	> 100 µM (inactive)	> 100 µM (inactive)	> 100 µM (inactive)	> 100 µM (inactive)	> 100 µM (inactive)	> 100 µM (inactive)	–	> 100 µM (inactive)	60.4 µM (inactive)	> 100 µM (inactive)	> 100 µM (inactive)	> 100 µM (inactive)	> 100 µM (inactive)
Cn1/c(=N\c2ccc(Cl)cc2)sc2ccccc21	> 100 µM (inactive)	26.6 µM (inactive)	22.3 µM (inactive)	21.9 µM (inactive)	50.8 µM (inactive)	> 100 µM (inactive)	37.7 µM (inactive)	37 µM (inactive)	> 100 µM (inactive)	34 µM (inactive)	45.8 µM (inactive)	55.2 µM (inactive)	75.3 µM (inactive)	38.5 µM (inactive)	4.98 µM (inactive)	43 µM (inactive)	34.7 µM (inactive)	34.7 µM (inactive)	–
Cc1cccc(Nc2cn(CCOc3ccccc3)c(=O)n(CCOc3ccccc3)c2=O)c1	> 100 µM (inactive)	> 100 µM (inactive)	> 100 µM (inactive)	> 100 µM (inactive)	> 100 µM (inactive)	–	> 100 µM (inactive)	> 100 µM (inactive)	> 100 µM (inactive)	> 100 µM (inactive)	–	> 100 µM (inactive)	> 100 µM (inactive)	–	–	–	> 100 µM (inactive)	–	–
CCCC1(N2C(=O)c3ccc4c5c(ccc(c35)C2=O)N(C2(CCC)CCCCC2)C4=O)CCCCC1	–	> 100 µM (inactive)	> 100 µM (inactive)	> 100 µM (inactive)	> 100 µM (inactive)	> 100 µM (inactive)	> 100 µM (inactive)	> 100 µM (inactive)	> 100 µM (inactive)	> 100 µM (inactive)	–	> 100 µM (inactive)	> 100 µM (inactive)	> 100 µM (inactive)	> 100 µM (inactive)	> 100 µM (inactive)	–	> 100 µM (inactive)	–
CCC1CNC(=O)CC1CC(=O)OC (centres undefined)	> 100 µM (inactive)	–	–	> 100 µM (inactive)	> 100 µM (inactive)	> 100 µM (inactive)	> 100 µM (inactive)	–	> 100 µM (inactive)	> 100 µM (inactive)	> 100 µM (inactive)	–	> 100 µM (inactive)	–	> 100 µM (inactive)	> 100 µM (inactive)	> 100 µM (inactive)	–	–
Cc1ccc(S(=O)(=O)n2cnc(CC(NC(=O)C3CCC(=O)N3C(=O)OCc3ccccc3)C(=O)N3CCCC3C(=O)NN)c2)cc1 (centres undefined)	> 100 µM (inactive)	–	> 100 µM (inactive)	> 100 µM (inactive)	–	–	> 100 µM (inactive)	> 100 µM (inactive)	–	–	> 100 µM (inactive)	> 100 µM (inactive)	> 100 µM (inactive)	> 100 µM (inactive)	–	> 100 µM (inactive)	–	–	> 100 µM (inactive)
